{"source": "ChEMBL document CHEMBL1240352", "about": "“Panel of prototypical raltegravir-resistant infectious molecular clones in a novel integrase-deleted cloning vector” (2010)", "format_in_all_cases": "functional", "key": {"[1]": {"test_system": "Human immunodeficiency virus 1", "assay": "Antiviral activity against Human immunodeficiency virus 1 clone 2253 harboring integrase S17N, V31I, I72V, L101I, T124A, K156N,V201I, I220M, D279G, R284G mutation transfected into human C8166 cells assessed as decrease in compound susceptibility relative to wild-type"}, "[2]": {"test_system": "Human immunodeficiency virus 1", "assay": "Antiviral activity against Human immunodeficiency virus 1 clone 1288 harboring integrase M154L and E11D, V31I, L101I, K160R, F181L,V201I, T206S, D256E mutation transfected into human C8166 cells assessed as decrease in compound susceptibility relative to wild-type"}, "[3]": {"test_system": "Human immunodeficiency virus 1", "assay": "Antiviral activity against Human immunodeficiency virus 1 clone 4736_2 harboring integrase N155H,T97A and D6E, S17N, R20K, D25E, S39C, L45V,L101I, V201I, S119R, T124A, K160T, K211R, D288N mutation transfected into human C8166 cells assessed as decrease in compound susceptibility relative to wild-type"}, "[4]": {"test_system": "Human immunodeficiency virus 1", "assay": "Antiviral activity against Human immunodeficiency virus 1 clone 4736_4 harboring integrase N155H, E92Q and D6E, S17N, R20K, D25E, S39C, L45V, L101I, T124A, K160T, V201I, K211R, D288N mutation transfected in human C8166 cells assessed as decrease in compound susceptibility relative to wild-type"}, "[5]": {"test_system": "Human immunodeficiency virus 1", "assay": "Antiviral activity against Human immunodeficiency virus 1 clone 4736_9 harboring integrase N155H, E92Q H51Y and D6E, S17N, R20K, D25E, S39C, D41H, L45V, L101I, T124A, K160T, V201I,K211R, D288N mutation transfected in human C8166 cells assessed as decrease in compound susceptibility relative to wild-type"}, "[6]": {"test_system": "Human immunodeficiency virus 1", "assay": "Antiviral activity against Human immunodeficiency virus 1 clone 4736_10 harboring integrase N155H, V151I, G163R and D6E, S17N, R20K, D25E, S39C, L45V, L101I, T124A, K160T, V201I, K211R, D288N mutation transfected in human C8166 cells assessed as decrease in compound susceptibility relative to wild-type"}, "[7]": {"test_system": "Human immunodeficiency virus 1", "assay": "Antiviral activity against Human immunodeficiency virus 1 clone 1556 harboring integrase Y143C, L74M, T97A, S230R, K7R, S17N, R20K, L101I, K111Q, T112K, S119R, T206S, D256E, V259I mutation transfected in human C8166 cells assessed as decrease in compound susceptibility relative to wild-type"}, "[8]": {"test_system": "Human immunodeficiency virus 1", "assay": "Antiviral activity against Human immunodeficiency virus 1 clone 8070_1 harboring integrase G140S, Y143H,Q148H and K14R, L101I, T112A, G193E, D229E, D279G mutation in transfected in human C8166 cells assessed as decrease in compound susceptibility relative to wild-type"}, "[9]": {"test_system": "Human immunodeficiency virus 1", "assay": "Antiviral activity against Human immunodeficiency virus 1 clone 8070_2 harboring integrase G140S, Q148H, K14R, L63I, L101I, T112A, G193E, D229E, D279G mutation transfected in human C8166 cells assessed as decrease in compound susceptibility relative to wild-type"}, "[10]": {"test_system": "Human immunodeficiency virus 1", "assay": "Antiviral activity against Human immunodeficiency virus 1 clone 4378 harboring integrase E157Q V31I, V32I, S39C, I72V, L101I, K160Q, F181L, V201I, Q216H, A265V mutation transfected in human C8166 cells assessed as decrease in compound susceptibility relative to wild-type"}}, "data": [{"smiles": "Cc1nnc(C(=O)NC(C)(C)c2nc(C(=O)NCc3ccc(F)cc3)c(O)c(=O)n2C)o1", "note": "[RALTEGRAVIR]", "values": [{"measurement": "fold change (FC)", "setting": "[1]", "value": 0.4}, {"measurement": "fold change (FC)", "setting": "[2]", "value": 1.06}, {"measurement": "fold change (FC)", "setting": "[3]", "value": 116}, {"measurement": "fold change (FC)", "setting": "[4]", "value": 96}, {"measurement": "fold change (FC)", "setting": "[5]", "value": 94}, {"measurement": "fold change (FC)", "setting": "[6]", "value": 48}, {"measurement": "fold change (FC)", "setting": "[7]", "value": ">200"}, {"measurement": "fold change (FC)", "setting": "[8]", "value": ">200"}, {"measurement": "fold change (FC)", "setting": "[9]", "value": ">200"}, {"measurement": "fold change (FC)", "setting": "[10]", "value": 1.15}]}]}
